Drawing on US20250129018A1, “PLEUROMUTILIN DERIVATIVES CONTAINING CYCLOALKYL GROUP AND PREPARATION METHODS AND APPLICATIONS THEREOF” (priority 2023, published 2025), this text covers minimum inhibitory concentration for 3 molecules.

Converted amounts (≈) assume the structure as drawn. Where only a bound is given, the exact number is not on record here.

Holding throughout (assay): MIC, two-fold serial dilution method
In assay [1] the test system is S. dysgalactiae-2. The assay is classed as cell-based, S. dysgalactiae equisimilis. The note with it: S. dysgalactiae-2. As to the method:
(§1) The pleuromutilin derivatives 1-4 prepared from Example 9 of the present disclosure were determined for their effect on Methicillin-resistant Staphylococcus aureus, Methicillin-resistant Staphylococcus epidermidis, standard strains of Staphylococcus aureus (S. aureus-29213 and S. aureus-25923), clinical strains 1-48 of S. aureus, Escherichia coli, S. agalactiae and S. dysgalactiae equisimilis (S. dysgalactiae-1, S. dysgalactiae-2, S. dysgalactiae-3) and minimum inhibitory concentration (MIC) using a two-fold serial dilution method, and the results were shown in Table 1, Table 2 and Table 3. The standard strains are commercially available from ATCC, and the clinical strains are preserved by Lanzhou Institute of Husbandry and Pharmaceutical Science of Chinese Academy of Agricultural Sciences (Lanzhou, Gansu, China).

Assay [2] relates to S. dysgalactiae-1. The format is cell-based, S. dysgalactiae equisimilis. The note with it: S. dysgalactiae-1. As to the method: as §1
Assay [3] relates to S. dysgalactiae-3. The format is cell-based, S. dysgalactiae equisimilis. The following applies: S. dysgalactiae-3. As to the method: as §1
The subject of assay [4] is MRSE. The format is cell-based, Methicillin-resistant Staphylococcus epidermidis. On the procedure: as §1
For assay [5], the system named is S. agalactiae-1. The format is cell-based. The note with it: S. agalactiae-1. On the procedure:
as §1

Assay [6] concerns S. aureus-29213. The format is cell-based, Staphylococcus aureus. The note with it: S. aureus-29213. As to the method: as §1
Assay [7] relates to S. aureus-25923. The format is cell-based, Staphylococcus aureus. The note with it: S. aureus-25923. As to the method:
as §1

For assay [8], the system named is MRSA-337371. The assay is classed as cell-based, Methicillin-resistant Staphylococcus aureus. The note with it: MRSA-337371. On the procedure: as §1
In assay [9] the test system is E. coli-25922. The assay is classed as cell-based, Escherichia coli. The note with it: E. coli-25922. As to the method: as §1

Consider `C=CC1(C)CC(OC(=O)CSC(C)(C)CNC(=O)C2CC2)C2(C)C(C)CCC3(CCC(=O)C32)C(C)C1O` (stereo not drawn) [derivative 1], for which the minimum inhibitory concentration in assay [1], in [2], in [3], in assay [4], in [5] and in [6] was 0.031 µg/mL (≈ 0.0581 µM) each time. In addition, the minimum inhibitory concentration in assay [7] is 0.031 µg/mL (≈ 0.0581 µM); in assay [8], 0.031 µg/mL (≈ 0.0581 µM); in [9], above 16 µg/mL.
In the case of `C=CC1(C)CC(OC(=O)CSC(C)(C)CNC(=O)C2CCCC2)C2(C)C(C)CCC3(CCC(=O)C32)C(C)C1O` (stereo not drawn) [derivative 3], the minimum inhibitory concentration in assay [1] was 0.125 µg/mL (≈ 0.222 µM); in assay [2], 0.125 µg/mL (≈ 0.222 µM); in assay [3] it was 0.125 µg/mL (≈ 0.222 µM); in assay [4], 0.25 µg/mL (≈ 0.445 µM); in assay [5], 0.125 µg/mL (≈ 0.222 µM); in [6], 0.125 µg/mL (≈ 0.222 µM). The minimum inhibitory concentration is 0.125 µg/mL (≈ 0.222 µM) in assay [7], 0.25 µg/mL (≈ 0.445 µM) in assay [8] and above 16 µg/mL in assay [9].
`C=CC1(C)CC(OC(=O)CSC(C)(C)CNC(=O)C2CCCCC2)C2(C)C(C)CCC3(CCC(=O)C32)C(C)C1O` (stereo not drawn) [derivative 4]: the minimum inhibitory concentration in assay [1] turned out to be 0.125 µg/mL (≈ 0.217 µM); in [2] it was 0.125 µg/mL (≈ 0.217 µM); in assay [3], 0.125 µg/mL (≈ 0.217 µM); in assay [4], 0.25 µg/mL (≈ 0.434 µM); in [5], 0.125 µg/mL (≈ 0.217 µM); in assay [6] it was 0.125 µg/mL (≈ 0.217 µM). For the same molecule, the minimum inhibitory concentration is 0.125 µg/mL (≈ 0.217 µM) in [7], 0.125 µg/mL (≈ 0.217 µM) in assay [8] and above 16 µg/mL in assay [9].
